Laboratory results: patent US8173709B2, “Anti-infective methods for treating pathogen-induced disordered tissues” (priority 1999, dated 2012)
Entries after “also recorded” stand apart in the source; their conditions may differ. Read-outs that look alike come from different tables or passages of the source.

What was measured:
[1] = system: Vaccinia virus (WR strain); parameters: species or system mice; settings: mouse, in vivo
[2] = system: vaccinia virus; assay type: in vivo, mice; settings: more vigorous rubbing in; treatment continued until death
[3] = system: Vaccinia virus (WR strain); parameters: species or system mice; settings: mouse, in vivo; remark: listed apart in the source

In the case of benzalkonium chloride, the Survivors/Total [1] is reported as 0/10, the protection from death [1] is reported as “No protection from death” and the “benefit in terms of survival or suppressing lesion severity” value [2] is reported as “no benefit”. The Survivors/Total [3] was 0/10, the “mean day of death / survival time compared to water” value [3] was “longer than those respective groups treated with water, but the results were not statistically significant; also recorded: slightly longer survival times” and the protection from death [3] was “No protection from death”.
